Test results reported in PMC9959553, “Promising Antifungal Molecules against Mucormycosis Agents Identified from Pandemic Response Box®: In Vitro and In Silico Analyses” (Journal of Fungi, 2023).

Tested on: R. oryzae UCP1295
Assay: Screening of the Pandemic Response Box library at 5 µM
Assay type: cell-based, Rhizopus oryzae
Conditions: 48 h, Table S1, mean of the four values
Method in brief: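 Compounds at 5 μM in RPMI 1640 with 2% glucose and MOPS (0.165 mol/L, pH 7.2), with conidia at 2 × 10^5/mL, incubated 48 h at 37 °C in 5% CO2. Growth read by OD at 600 nm; hits defined as ≥60% inhibition. Posaconazole (5 μM) and 1% DMSO as controls.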

Row | SMILES | % of growth inhibition, Mean [%]
1 | CCNC(=O)Nc1cn2c(-c3ncc(CC)cn3)cc(-c3cccnc3)cc2n1 [MMV1782403] | -42.7
2 | Cc1cc(-c2ccccc2)c(C(=O)C(=O)Nc2ccc(N3CCN(c4ncc(F)cn4)CC3)cc2)n1C [MMV1782354] | -38.2
3 | COCCn1cnc2c(O)nc(Nc3ccccc3)nc21 [MMV1782103] | -15.7
4 | O=C(NCc1ncc(C(F)(F)F)cc1Cl)c1c(Cl)cccc1Cl [MMV689401] | -36.5
5 | COc1ccc(NC(=O)c2cc3ccccn3n2)cc1 [MMV374187] | -18.8
6 | COc1nc2ccc(Br)cc2cc1[C@@H](c1ccccc1)[C@@](O)(CCN(C)C)c1cccc2ccccc12 [MMV689758] | -19.9
7 | O=c1cc(Nc2ccc3ccccc3c2)[nH]c(=O)[nH]1 [MMV1581546] | -6.0
8 | CC[C@H](CO)NCCN[C@H](CC)CO [MMV687801] | -13.2
9 | Cc1cc(NS(=O)(=O)c2ccc(-c3ccc(F)cc3F)cc2)no1 [MMV1782217] | -29.1
10 | NC(=O)c1cnc2ccc(S(=O)(=O)c3ccccc3)cc2c1Nc1ccc(O)cc1 [MMV1580848] | -15.6
11 | CN1c2ccc(Cl)cc2N(c2ccccc2)C(=O)c2cn(Cc3ccc(CN4CCOCC4)cc3)nc21 [MMV1782222] | 3.4
12 | CC#C[C@]1(O)CC[C@H]2[C@@H]3CCC4=CC(=O)CCC4=C3[C@@H](c3ccc(N(C)C)cc3)C[C@@]21C [MMV003297] | -3.7
13 | CC(C)Nc1ncnc2c1cnn2-c1ccc(Cl)cc1 [MMV108465] | -32.3
14 | Fc1ccc2c(/C=C/c3cccnc3)c[nH]c2c1 [MMV1578889] | -15.1
15 | Cc1nc(Nc2ccc(F)cc2)nc(N2CCc3ccccc3C2C)c1C (centres unmarked) [MMV030787] | -5.0
16 | CN(C(=O)C1(c2ccc(Cl)cc2)CCC1)c1ccccc1 [MMV1581030] | -7.5
17 | O=C(NCc1ccccc1Cl)c1cnc2ccccc2n1 [MMV1230557] | -3.7
18 | Nc1nc(Nc2ccc3nc(-c4ccc(F)cc4)cc(N)c3c2)cc(-c2ccccc2)n1 [MMV1593541] | -21.7
19 | CC(C)n1cnc2c(NCc3ccccc3)nc(NCc3ccccc3)nc21 [MMV1579780] | -15.2
20 | NC[C@H]1O[C@H](O[C@H]2[C@H](O)[C@@H](O[C@H]3O[C@H](CO)[C@@H](O)[C@H](N)[C@H]3O)[C@H](N)C[C@@H]2N)[C@H](N)C[C@@H]1O [MMV002459] | -14.1
21 | CONC(=N)c1ccc(-c2ccc(-c3ccc(C(=N)NOC)cc3)o2)cc1 [MMV000059] | -38.5
22 | C[C@@H](c1nc(-c2ccc(C#N)cc2)cs1)[C@](O)(Cn1cncn1)c1ccc(F)cc1F [MMV1634362] | -36.2
23 | Nc1nc(=O)[nH]cc1F [MMV004508] | -32.5
24 | CCCCc1ccc(-c2cc(C(=O)O)cc(-c3ccc(Cl)cc3)n2)cc1 [MMV1580852] | -12.9

Row | SMILES | % of growth inhibition, Mean [%]
25 | C[C@@H](NC(=O)c1cccc(-c2cnc(-c3cc4ccccc4cn3)[nH]2)c1)c1ccc(F)cc1 [MMV1782211] | 32.8
26 | Cc1cc(CCCOc2c(C)cc(-c3noc(C(F)(F)F)n3)cc2C)on1 [MMV690467] | -3.4
27 | C[C@H]1[C@@H](c2cccc(C(F)(F)F)c2)OC(=O)N1C(=O)NCc1cncc2ccccc12 [MMV1593533] | -13.8
28 | NC(=S)N/N=C/c1ncccc1N [MMV1580496] | -9.1
29 | Cc1cc(CCOc2c(C)cc(-c3nnn(C)n3)cc2C)on1 [MMV1782349] | -3.0
30 | COc1ccc(SCC(=O)N2c3ccccc3Sc3ccccc32)cc1 [MMV1578573] | -3.7
31 | NC(=O)c1[nH]c2ccc(S(N)(=O)=O)cc2c1-c1ccccc1 [MMV1581556] | -42.8
32 | O=S(=O)(Nc1cccc2cccnc12)c1ccccc1 [MMV1578890] | 0.6
33 | COc1cc(C2C3=C(CC(C)(C)CC3=O)Nc3ccccc3N2C(C)=O)ccc1OCc1ccccc1 (centres unmarked) [MMV1634557] | -15.9
34 | CC[C@H](CO)Nc1nc(NCc2ccccc2)c2ncn(C(C)C)c2n1 [MMV003820] | -13.4
35 | OC1O[C@H](CSc2ccc(F)cc2)[C@@H](O)[C@H]1O (some centres unmarked) [MMV1581550] | -29.6
36 | O=[N+]([O-])c1ccc2c(CCc3c[nH]c4ccccc34)c[nH]c2c1 [MMV1593539] | -2.0
37 | CC(C)(C)c1ccc(C(Cn2cccc(C(F)(F)F)c2=O)NC2Cc3ccccc3C2)cc1 (centres unmarked) [MMV1634393] | -0.4
38 | CCNC(=O)Nc1cc(-c2ccccc2)c(-c2cncc(C(=O)O)c2)cn1 [MMV1593534] | -20.0
39 | CN1CCN(Cc2ccc(-c3cnc4[nH]cc(-c5ccc6[nH]ccc6c5)c4c3)cc2)CC1 [MMV1580482] | 1.5
40 | CCN(CC)CCCC(C)Nc1ccnc2cc(Cl)ccc12 (centres unmarked) [MMV000008] | -3.5
41 | NC1C2CC3CC(C2)CC1C3 (centres unmarked) [MMV180402] | 3.0
42 | O=C(O)CSc1cc(NS(=O)(=O)c2cccc3cccnc23)c2ccccc2c1O [MMV218827] | -3.2
43 | O=C(O)/C=C/C=C/c1cccc(Oc2cc(Cl)cc(Cl)c2)c1 [MMV1633963] | 12.3
44 | CSC[C@H]1CN(Cc2c[nH]c3c(N)ncnc23)C[C@@H]1O [MMV1578565] | -14.4
45 | Oc1ccc(NCc2ccccc2OCc2ccccc2)cc1 [MMV1580504] | -5.9
46 | Cc1c(F)cccc1NC(=O)Nc1ccc(Cl)c(S(=O)(=O)[C@H]2CCCNC2)c1O [MMV1581034] | -0.9
47 | CC(C)Oc1ccc(-c2nc(-c3cccc4c3CC[C@@H]4NCCO)no2)cc1C#N [MMV1580492] | -7.3
48 | CCNC(=O)Nc1cc2c(-c3ccnc(C)c3)ccc(CNC(=O)OC)c2cn1 [MMV1634390] | -15.7

Row | SMILES | % of growth inhibition, Mean [%]
49 | O=P(O)(O)C(CCCc1cccc(Oc2ccccc2)c1)S(=O)(=O)O (centres unmarked) [MMV1782215] | -6.1
50 | COc1cc2c(O)c3c(c(-c4ccc5c(c4)OCO5)c2cc1OC)C(=O)OC3 [MMV102270] | -33.2
51 | O=c1cc(NCCCN[C@@H]2CCOc3c(Br)cc(Br)cc32)[nH]c2ccsc12 [MMV1578884] | -1.3
52 | O=C(CP(=O)(O)O)NCCc1cccc(Oc2ccccc2)c1 [MMV1579787] | -30.1
53 | O=C(Nc1cccc(C2=NCCN2)c1)c1ccc(-c2ccc(C(=O)Nc3cccc(C4=NCCN4)c3)cc2)cc1 [MMV1580853] | -34.0
54 | COc1cc(NCc2ccc3nc(N)nc(N)c3c2C)cc(OC)c1OC [MMV1580173] | 46.8
55 | Cc1nc2ccc(Cl)cc2c(-c2ccccc2)c1CC(=O)O [MMV1580801] | -8.7
56 | Cc1ccc(S(=O)(=O)Nc2cccc3cccnc23)cc1 [MMV233495] | -0.4
57 | O=C(NC12CC3CC(CC(C3)C1)C2)c1cc2ccccc2[nH]1 [MMV1578577] | -4.8
58 | Nc1cnn(C2OC(CO)C(O)C2O)c(=O)n1 (centres unmarked) [MMV1580495] | -5.9
59 | CNCC(=O)OCc1cccnc1N(C)C(=O)OC(C)[n+]1cnn(C[C@](O)(c2cc(F)ccc2F)[C@@H](C)c2nc(-c3ccc(C#N)cc3)cs2)c1 (some centres unmarked) [MMV1634494] | -14.8
60 | Oc1c(C(Nc2ccccn2)c2ccccc2)ccc2cccnc12 (centres unmarked) [MMV565773] | -30.1
61 | CC(C)(C)c1cc(C(=O)/C(C#N)=N/Nc2cccc(Cl)c2)no1 [MMV1578571] | -7.2
62 | CC1CCc2c(N3CCC(O)CC3)c(F)cc3c(=O)c(C(=O)O)cn1c23 (centres unmarked) [MMV637659] | -19.1
63 | CCC[C@H](NC(=O)[C@@H]1[C@H]2CCC[C@H]2CN1C(=O)[C@@H](NC(=O)[C@@H](NC(=O)c1cnccn1)C1CCCCC1)C(C)(C)C)C(=O)C(=O)NC1CC1 [MMV1580494] | -15.1
64 | O=C1c2cccc3cccc(c23)C(=O)N1CC1CO1 (centres unmarked) [MMV1634360] | -18.1
65 | CN1C(=O)C(c2ccccc2)C(=O)N(c2ccccc2)c2cc(C(F)(F)F)ccc21 (centres unmarked) [MMV1782208] | -7.5
66 | O=C(CCc1ccc2c(c1)OCO2)NCc1ccc(-c2ccccc2F)cc1 [MMV1782110] | -2.8
67 | CCCCCCCc1[nH]c2ccccc2c(=O)c1O [MMV1578561] | -24.4
68 | OB1OCc2c1ccc(Cl)c2F [MMV1782226] | -20.0
69 | OB1OCc2cc(Cl)ccc21 [MMV1634363] | -17.9
70 | CNC(=O)C1O[C@@H](n2cnc3c(NCc4cccc(I)c4)nc(Cl)nc32)[C@H](O)[C@@H]1O (some centres unmarked) [MMV1593514] | -5.2
71 | CCCCCCC1c2ccc(O)cc2Oc2cc(O)ccc21 [MMV1593535] | -3.0
